# Test results taken from publication PMC8389922, “First-in-Class Cyclic Temporin L Analogue: Design, Synthesis, and Antimicrobial Assessment” (Journal of Medicinal Chemistry, 2021).
# Bridge positions count the residues as written; N and C are the ends. Square brackets hold non-standard residues; d marks the D form. Peptide text beside a SMILES is read from it.
# System: S. aureus MRSA ATCC 43300
# Test: In vitro time kill assay
# Format: cell-based, Staphylococcus aureus
# Details: 10^6 CFU/mL, peptide at the MIC (12.5 μM peptide 12; 25 μM peptide 9), 37 °C, CFU counts
# Description: Thus, 12 was further tested against S. aureus ATCC 43300, a methicillin-resistant strain (MRSA), and compared with the linear precursor 9. […] No growth was observed after 24 h. Peptide 9 was bactericidal as well, by killing MRSA within 10 min, but at a higher concentration (25 μM).
# Figure 7 In vitro time kill assay. […] The inhibitory effect on bacterial growth was assessed by measuring the number of CFU obtained after the treatment.
# The plates were incubated at 37 °C on an orbital shaker at 120 rpm. Viability assessments were performed at 10 min, 30 min, 1 h, 2 h, and 24 h by plating 0.01 mL of undiluted and 10-fold serially diluted samples onto Mueller–Hinton plates in triplicate. After overnight incubation at 37 °C, bacterial colonies were counted and compared with counts from control cultures.
structure (smiles),measurement,value
CC[C@H](C)[C@H](NC(=O)[C@H](CCCNC(=N)N)NC(=O)[C@@H]1CCC(=O)NCCCC[C@H](NC(=O)[C@H](Cc2ccccc2)NC(=O)[C@H](Cc2c[nH]c3ccccc23)NC(=O)[C@@H]2CCCN2C(=O)[C@@H](NC(=O)[C@@H](N)Cc2ccccc2)C(C)C)C(=O)N[C@@H](CCCCN)C(=O)N[C@@H](Cc2ccccc2)C(=O)N[C@H](CC(C)C)C(=O)N1)C(=O)N[C@@H](CC(C)C)C(N)=O [compound 12] (H-FVPWFKKF[dL]ERIL-NH2; lactam 6-10),time within which the MRSA strain was killed,≤ 30 min
